Experimental data reported in US11814392B2, “Chromenopyridine-based compounds and methods of making and use thereof” (Rosalind Franklin University of Medicine and Science, priority 2020, dated 2023).

Assays:
HL-60 (TB) = test: NCI 60 five-dose screening, HL-60 (TB); assay type: cell-based, human; conditions: HL-60 (TB) (Leukemia), 48 h
HS578T = test: NCI 60 five-dose screening, HS578T; assay type: cell-based, human; conditions: HS578T (Breast Cancer), 48 h
SR = test: NCI 60 five-dose screening, SR; conditions: Homo sapiens, 48 h
Experimental: (§1) The National Cancer Institute's Developmental Therapeutic preclinical 60 human cancer cell lines were used for an in vitro screen. […] The one-dose and five-dose experiments were conducted according to standard NCI protocols.
The human tumor cell lines of the cancer screening panel are grown in RPMI 1640 medium containing 5% fetal bovine serum and 2 mM L-glutamine. For a typical screening experiment, cells are inoculated into 96 well microtiter plates in 100 μL at plating densities ranging from 5,000 to 40,000 cells/well depending on the doubling time of individual cell lines. […]
(§2) Following drug addition, the plates are incubated for an additional 48 h at 37° C., 5% CO2, 95% air, and 100% relative humidity. […] Bound stain is subsequently solubilized with 10 mM trizma base, and the absorbance is read on an automated plate reader at a wavelength of 515 nm. […] Using the seven absorbance measurements [time zero, (Tz), control growth, (C), and test growth in the presence of drug at the five concentration levels (Ti)], the percentage growth is calculated at each of the drug concentrations levels. Percentage growth inhibition is calculated as: [(Ti−Tz)/(C−Tz)]×100 for concentrations for which Ti>/=Tz [(Ti−Tz)/Tz]×100 for concentrations for which Ti<Tz.
Three dose response parameters are calculated for each experimental agent. […]

U251 = test: NCI 60 five-dose screening, U251
Experimental: as §1
(§3) The human tumor cell lines of the cancer screening panel are grown in RPMI 1640 medium containing 5% fetal bovine serum and 2 mM L-glutamine. For a typical screening experiment, cells are inoculated into 96 well microtiter plates in 100 μL at plating densities ranging from 5,000 to 40,000 cells/well depending on the doubling time of individual cell lines. After cell inoculation, the microtiter plates are incubated at 37° C., 5% CO2, 95% air and 100% relative humidity for 24 h prior to addition of experimental drugs.
(§4) After 24 h, two plates of each cell line are fixed in situ with TCA, to represent a measurement of the cell population for each cell line at the time of drug addition (Tz). […]
as §2
(§5) Three dose response parameters are calculated for each experimental agent. […] The drug concentration resulting in total growth inhibition (TGI) is calculated from Ti=Tz. […] Values are calculated for each of these three parameters if the level of activity is reached; however, if the effect is not reached or is exceeded, the value for that parameter is expressed as greater or less than the maximum or minimum concentration tested.

A498 = test: NCI 60 five-dose screening, A498
Experimental: (§6) The one-dose and five-dose experiments were conducted according to standard NCI protocols.
as §3
(§7) After 24 h, two plates of each cell line are fixed in situ with TCA, to represent a measurement of the cell population for each cell line at the time of drug addition (Tz). Experimental drugs are solubilized in dimethyl sulfoxide at 400-fold the desired final maximum test concentration and stored frozen prior to use. […]
as §2, §5

MCF7 = test: NCI 60 five-dose screening, MCF7
Experimental: as §1, §3, §4, §2, §5

SNB-19 = test: NCI 60 five-dose screening, SNB-19
Experimental: as §1, §3, §4, §2, §5

UACC-62 = test: NCI 60 five-dose screening, UACC-62
Experimental: as §1, §3, §4, §2, §5

SK-OV-3 = test: NCI 60 five-dose screening, SK-OV-3
Experimental: as §6, §3, §7, §2, §5

NCI-H226 = test: NCI 60 five-dose screening, NCI-H226
Experimental: as §6, §3, §7, §2, §5

SK-MEL-2 = test: NCI 60 five-dose screening, SK-MEL-2
Experimental: as §1, §3, §4, §2, §5

COc1ccc(SC2c3cc(OC)c(OC)cc3Oc3nc(N)c(C#N)c(N)c32)cc1 (stereo not drawn) [Compound 1, 2,4-diamino-7,8-dimethoxy-5-((4-methoxyphenyl)thio)-5H-chromeno[2,3-b]pyridine-3-carbonitrile]
TGI (HL-60 (TB)): 1.27 µM | GI50 (HL-60 (TB); Homo sapiens): 0.34 µM | TGI (HS578T): 4.16 µM | GI50 (HS578T; Homo sapiens, Hs-578T): 1.8 µM | GI50 (SR): 0.27 µM | CC50 (SR; read-out: LC50): > 100 µM | GI50 (U251; Homo sapiens, U-251, 48 h): 0.95 µM | CC50 (U251; Homo sapiens, U-251, 48 h, read-out: LC50): 4.83 µM | TGI (U251; U251 (CNS Cancer), five-dose, 48 h): 2.18 µM | TGI (A498; A498 (Renal Cancer), five-dose, 48 h): 2.85 µM | GI50 (A498; Homo sapiens, A498, 48 h): 1.42 µM | CC50 (A498; Homo sapiens, A498, 48 h, read-out: LC50): 5.73 µM | GI50 (MCF7; Homo sapiens, MCF7, 48 h): 0.45 µM | CC50 (MCF7; Homo sapiens, MCF7, 48 h, read-out: LC50): 8.47 µM | TGI (MCF7; MCF7 (Breast Cancer), five-dose, 48 h): 2.10 µM | GI50 (SNB-19; Homo sapiens, SNB-19, 48 h): 1.32 µM | CC50 (SNB-19; Homo sapiens, SNB-19, 48 h, read-out: LC50): 5.3 µM | TGI (SNB-19; SNB-19 (CNS Cancer), five-dose, 48 h): 2.64 µM | GI50 (UACC-62; Homo sapiens, UACC-62, 48 h): 0.44 µM | CC50 (UACC-62; Homo sapiens, UACC-62, 48 h, read-out: LC50): 4.3 µM | TGI (UACC-62; UACC-62 (Melanoma), five-dose, 48 h): 1.73 µM | GI50 (SK-OV-3; Homo sapiens, SK-OV-3, 48 h): 1.81 µM | CC50 (SK-OV-3; Homo sapiens, SK-OV-3, 48 h, read-out: LC50): 5.66 µM | TGI (SK-OV-3; SK-OV-3 (Ovarian Cancer), five-dose, 48 h): 3.20 µM | GI50 (NCI-H226; Homo sapiens, NCI-H226, 48 h): 1.37 µM | CC50 (NCI-H226; Homo sapiens, NCI-H226, 48 h, read-out: LC50): 5.23 µM | TGI (NCI-H226; NCI-H226 (Non-small cell Lung), five-dose, 48 h): 2.68 µM | GI50 (SK-MEL-2; Homo sapiens, SK-MEL-2, 48 h): 1.37 µM | CC50 (SK-MEL-2; Homo sapiens, SK-MEL-2, 48 h, read-out: LC50): 5.76 µM | TGI (SK-MEL-2; SK-MEL-2 (Melanoma), five-dose, 48 h): 2.80 µM
